# Experimental data published in patent US6566307B1, “α,α′-substituted n-alkyl-3-alkenylbenzoyl-pyrazol-derivatives” (BASF Aktiengesellschaft, priority 1999, dated 2003).
# What was measured:
# Test in all cases: Greenhouse herbicidal activity, post-emergence method
# Details in all cases: scale 0 to 100 (100 = complete destruction, 0 = no damage)
# [1] = system: ECHCG; type: in vivo, barnyardgrass
# Text: (§1) The herbicidal activity of the compounds of the formula I was shown by greenhouse experiments: The culture containers used are plastic pots containing loamy sand with approximately 3.0% of humus as the substrate. The seeds of the test plants are sown separately for each species. For the post-emergence treatment, the test plants were first grown to a height of 3 to 15 cm, depending on the plant form, and only then treated with the active compounds which have been suspended or emulsified in water. The test plants were for this purpose either sown directly and grown in the same containers, or they were first grown separately as seedlings and transplanted into the test containers a few days prior to treatment. The application rate for the post-emergence treatment was 0.25, 0.125 or 0.0625 kg of active substance (a.s.)/ha. Depending on the species, the plants were kept at 10-25° C. or 20-35° C. The test period extended over 2 to 4 weeks. During this time, the plants are tended, and their response to the individual treatments was evaluated. The evaluation was carried out using a scale from 0 to 100. 100 means no emergence of the plants, or complete destruction of at least the aerial parts and 0 means no damage, or normal course of growth. The plants used in the greenhouse experiments were composed of the following species: [table]
# [2] = system: SETVI; type: in vivo, green foxtail
# Text: as §1
# [3] = system: CHEAL; type: in vivo, lambsquarter
# Text: as §1
# [4] = system: POLPE; type: in vivo, ladysthumb
# Text: as §1
# [5] = system: SINAL; type: in vivo, white mustard
# Text: as §1
# [6] = application rate 0.0625 kg of a.s./ha
# [7] = application rate 0.125 kg of a.s./ha
smiles,measurement,setting,value
C=Cc1c(S(C)(=O)=O)ccc(C(=O)C2C=NN(C(C)C)C2O)c1OC (stereo not shown),Herbicidal activity when used by the post-emergence method in a greenhouse,[1]; [6],95
same,Herbicidal activity when used by the post-emergence method in a greenhouse,[1]; [7],95
same,Herbicidal activity when used by the post-emergence method in a greenhouse,[2]; [6],95
same,Herbicidal activity when used by the post-emergence method in a greenhouse,[2]; [7],95
same,Herbicidal activity when used by the post-emergence method in a greenhouse,[3]; [6],100
same,Herbicidal activity when used by the post-emergence method in a greenhouse,[3]; [7],100
same,Herbicidal activity when used by the post-emergence method in a greenhouse,[4]; [6],100
same,Herbicidal activity when used by the post-emergence method in a greenhouse,[4]; [7],100
same,Herbicidal activity when used by the post-emergence method in a greenhouse,[5]; [6],98
same,Herbicidal activity when used by the post-emergence method in a greenhouse,[5]; [7],98
